Consider 16 molecules from US20080261994A1, “CYCLOPROPANE COMPOUNDS AND PHARMACEUTICAL USE THEREOF” (Japan Tobacco Inc., priority 2003, published 2008).

What is called IC50 is the point on the concentration scale where inhibition reaches its midpoint.

Like-named read-outs stand apart in the source and are kept apart here.

Common to all, as to assay type: biochemical
The target in assay [1] is T1, aggrecanase-1 (Homo sapiens, UniProt O75173).
T1 sequence (O75173 213-837): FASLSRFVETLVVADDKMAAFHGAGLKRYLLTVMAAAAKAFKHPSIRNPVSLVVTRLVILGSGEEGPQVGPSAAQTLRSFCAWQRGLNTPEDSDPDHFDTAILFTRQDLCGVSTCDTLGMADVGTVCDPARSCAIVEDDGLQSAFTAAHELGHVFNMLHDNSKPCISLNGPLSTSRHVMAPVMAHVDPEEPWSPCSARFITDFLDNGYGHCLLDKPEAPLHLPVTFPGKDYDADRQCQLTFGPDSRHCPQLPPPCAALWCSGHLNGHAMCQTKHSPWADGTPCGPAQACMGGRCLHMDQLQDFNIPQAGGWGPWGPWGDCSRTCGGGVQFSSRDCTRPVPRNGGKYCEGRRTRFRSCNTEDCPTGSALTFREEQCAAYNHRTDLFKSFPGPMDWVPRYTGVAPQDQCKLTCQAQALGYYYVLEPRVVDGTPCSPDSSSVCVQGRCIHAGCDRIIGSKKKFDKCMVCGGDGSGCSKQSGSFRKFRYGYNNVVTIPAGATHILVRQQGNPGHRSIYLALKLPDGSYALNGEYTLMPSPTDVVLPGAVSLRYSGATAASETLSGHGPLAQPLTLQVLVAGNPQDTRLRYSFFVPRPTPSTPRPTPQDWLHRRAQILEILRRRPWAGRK
Briefly: Aggrecanase-1 inhibitory action (Particle Assay, GAG release from aggrecan-containing polyacrylamide particles). The method in brief:
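Readout was dimethylmethylene blue absorbance (595 nm) of glycosaminoglycan liberated into supernatant, calibrated with whale chondroitin sulfate. Substrate was aggrecan in polyacrylamide particles, digested 15 h at 37° C in Tris-HCl; TC50 (μM) derived from inhibition relative to no-enzyme and no-inhibitor controls.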

Assay [2] has as its target T2, MMP-1 (Homo sapiens, UniProt P03956).
T2 sequence (P03956 100-469): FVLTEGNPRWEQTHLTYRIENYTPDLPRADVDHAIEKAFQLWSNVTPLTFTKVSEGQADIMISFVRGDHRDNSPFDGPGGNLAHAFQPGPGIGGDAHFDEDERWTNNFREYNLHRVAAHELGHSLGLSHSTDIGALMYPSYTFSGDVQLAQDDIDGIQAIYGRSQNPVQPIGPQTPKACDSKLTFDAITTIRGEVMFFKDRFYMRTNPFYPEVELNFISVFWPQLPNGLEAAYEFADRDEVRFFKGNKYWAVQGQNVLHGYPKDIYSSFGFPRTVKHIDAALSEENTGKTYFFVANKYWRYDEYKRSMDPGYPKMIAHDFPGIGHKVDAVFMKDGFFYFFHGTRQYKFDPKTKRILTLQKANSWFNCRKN
The assay can be described thus: MMP-1 inhibitory action (Type I collagen Activity Measurement kit, FITC-labeled collagen type I).

The target of assay [3] is T3, Recombinant Human MMP-13 (Homo sapiens, UniProt P45452).
T3 construct: purchased R&D systems 511-MM
The assay can be described thus: MMP-13 inhibitory activity (MMP-13 specific fluorescent substrate with quencher). The method in brief: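 IC50 (μM) derived from % inhibition, normalised to wells without enzyme and without inhibitor, fluorescence read at 325/405 nm. Enzyme and compound preceded addition of the quenched 7-MCA…DPA substrate; Tris-HCl buffer, 25 °C for 1 h, acetic-acid stop.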

[4] abbreviates: aggrecanase-1 inhibitory action, read-out: IC50 AG1 (Experimental Example 1).
Setting [5] is: MMP-1 inhibitory action, FITC-labeled collagen type I, 37° C. for 3 hr, read-out: IC50 MMP1 (Experimental Example 2).
The mark [6] stands for this setting: Recombinant Human MMP-13, fluorescent substrate, 25° C. for 1 h, read-out: IC50 MMP13 (Experimental Example 3).
[7] abbreviates: Experimental Example 1, read-out: IC50 AG1.
Setting [8] is: Experimental Example 2, read-out: IC50 MMP1.
The mark [9] stands for this setting: Experimental Example 3, read-out: IC50 MMP13.

Consider `CN1CCN(C(=O)CCc2ccccc2C2CC2(NS(=O)(=O)c2ccc(-c3cc(C(F)(F)F)on3)s2)C(=O)O)CC1` (stereo not drawn) [Example 2-232], for which the IC50 is under 1000 nM in assay [1] (setting [4]), at least 1000 nM in assay [2] (setting [5]) and under 100 nM in assay [3] (setting [6]).

Turning to `CN1CCN(C(=O)c2ccccc2C2CC2(NS(=O)(=O)c2ccc(-c3ccc(Cl)cc3)s2)C(=O)O)CC1` (stereo not drawn) [Example 2-216], the IC50 is under 1000 nM in assay [1] (setting [4]), at least 10000 nM in assay [2] (setting [5]) and under 1000 nM in assay [3] (setting [6]).

As to `CN(C)C(=O)CCc1ccccc1C1CC1(NS(=O)(=O)c1ccc(-c2cc(C(F)(F)F)on2)s1)C(=O)O` (stereo not drawn) [Example 2-231], the IC50 is under 1000 nM in assay [1] (setting [4]), at least 1000 nM in assay [2] (setting [5]) and under 100 nM in assay [3] (setting [6]).

As for `O=C(O)C1(NS(=O)(=O)N2CCn3c(cc4cc(Cl)ccc43)C2)CC1c1ccccc1` (stereo not drawn) [Example 2-156], the IC50 in assay [1] (setting [4]) is at least 1000 nM; in assay [2] (setting [5]), at least 10000 nM; in assay [3] (setting [6]), at least 1000 nM.

As to `Cc1cc(N2CCN(S(=O)(=O)N[C@@]3(C(=O)O)C(C)[C@@H]3c3ccccc3)CC2=O)no1` (stereo partly drawn) [Example 2-476], the IC50 in assay [1] (setting [7]) is at least 1000 nM; in assay [2] (setting [8]), at least 10000 nM; in assay [3] (setting [9]), at least 10000 nM.

In the case of `C[C@]1(c2ccccc2)C[C@@]1(NS(=O)(=O)c1ccc(-c2ccc(CO)cc2)s1)C(=O)O` [Example 2-574], the IC50 in assay [1] (setting [7]) is under 1000 nM; in assay [2] (setting [8]), under 1000 nM; in assay [3] (setting [9]), under 100 nM.

As to `CN1CCN(C(=O)Cc2ccc([C@@H]3C[C@]3(NS(=O)(=O)c3ccc(-c4cc(C(F)(F)F)on4)s3)C(=O)O)cc2)CC1` [Example 2-294], the IC50 was under 100 nM in assay [1] (setting [7]), at least 1000 nM in assay [2] (setting [8]) and under 100 nM in assay [3] (setting [9]).

Consider `COCC(=O)NCC1(c2ccccc2)CC1(NS(=O)(=O)c1ccc(-c2ccc(Cl)cc2)s1)C(=O)O` (stereo not drawn) [Example 2-398], for which the figures for the IC50 in assay [1] (setting [7]), in assay [2] (setting [8]) and in assay [3] (setting [9]) were under 1000 nM, at least 10000 nM and under 1000 nM, respectively.

Take `O=C(O)C1(NS(=O)(=O)c2ccc(-c3ccc(Cl)cc3)cc2)CC1c1ccc(Oc2ccccc2)cc1` (stereo not drawn) [Example 1-16]: the IC50 was under 1000 nM in assay [1] (setting [4]), at least 1000 nM in assay [2] (setting [5]) and under 100 nM in assay [3] (setting [6]).

For `O=C(O)C1(NS(=O)(=O)c2ccc(-c3ccc(Cl)cc3)cc2)CC1c1cccc(OCc2cccnc2)c1` (stereo not drawn) [Example 1-76], the values for the IC50 in assay [1] (setting [4]), in assay [2] (setting [5]) and in assay [3] (setting [6]) were under 1000 nM, at least 10000 nM and under 100 nM, respectively.

Regarding `CC(C)SCC1(c2ccccc2)CC1(NS(=O)(=O)c1ccc(-c2ccc(Cl)cc2)s1)C(=O)O` (stereo not drawn) [Example 2-349], the IC50 in assay [1] (setting [7]) was under 100 nM; in assay [2] (setting [8]) it was at least 10000 nM; in assay [3] (setting [9]), under 1000 nM.

`CC1[C@H](c2ccccc2)[C@]1(NS(=O)(=O)c1ccc(-c2ccc(C(F)(F)F)cc2)s1)C(=O)O` (stereo partly drawn) [Example 2-590]: the IC50 in assay [1] (setting [7]) is under 100 nM; in assay [2] (setting [8]), at least 1000 nM; in assay [3] (setting [9]), under 100 nM.

For the molecule `C[C@]1(c2ccccc2)C[C@@]1(NS(=O)(=O)c1cn2cc(-c3ccccc3)nc2s1)C(=O)O` [Example 2-518], the IC50 in assay [1] (setting [7]) is under 1000 nM; in assay [2] (setting [8]), under 1000 nM; in assay [3] (setting [9]), under 100 nM.

Consider `CC1[C@H](c2ccccc2)[C@]1(NS(=O)(=O)c1ccc(-c2ccc(Cl)c(CO)c2)s1)C(=O)O` (stereo partly drawn) [Example 2-565], for which the IC50 was under 100 nM in assay [1] (setting [7]), under 1000 nM in assay [2] (setting [8]) and under 100 nM in assay [3] (setting [9]).

For the molecule `C[C@]1(c2ccccc2)C[C@@]1(NS(=O)(=O)c1ccc(-c2ccncc2)s1)C(=O)O` [Example 2-526], the IC50 in assay [1] (setting [7]), in assay [2] (setting [8]) and in assay [3] (setting [9]) was at least 1000 nM in each case.

As for `O=C(O)COc1ccccc1C1CC1(NS(=O)(=O)c1ccc(-c2ccc(Cl)cc2)s1)C(=O)O` (stereo not drawn) [Example 1-139], the IC50 in assay [1] (setting [4]) was under 100 nM; in assay [2] (setting [5]), at least 10000 nM; in assay [3] (setting [6]) it was under 1000 nM.
